Patent publication US11981658B2, “Substituted aminopyridine compounds as EGFR inhibitors” (YUHAN CORPORATION, priority 2021, dated 2024)
Where two headings read alike, the source gives them in different places.

Columns and labels:
EGFR L858R/T790M/C797S = EGFR L858R/T790M/C797S (Homo sapiens, UniProt P00533, C797S/L858R/T790M); assay: Biochemical EGFR kinase inhibition assay (Lance Ultra TR-FRET), triple mutant L858R/T790M/C797S
Procedure, shortened: (§1)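 Step 1: compound in kinase buffer, 0.003–10 μM. Step 2: kinase reaction 1 h at room temperature. Step 4: TR-FRET read at 615/665 nm; IC50 calculated.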

EGFR Del19/T790M/C797S = EGFR Del19/T790M/C797S (Homo sapiens, UniProt P00533, C797S/DEL746-750/T790M); assay: Biochemical EGFR kinase inhibition assay (Lance Ultra TR-FRET), triple mutant del19/T790M/C797S
Procedure, shortened: as §1

EGFR wildtype (WT) = EGFR wildtype (WT) (Homo sapiens, UniProt P00533); assay: Biochemical EGFR kinase inhibition assay (Lance Ultra TR-FRET), wildtype
Procedure, shortened: as §1

EGFR Del19/C797S = EGFR Del19/C797S (Homo sapiens, UniProt P00533, C797S/DEL746-750); assay: Biochemical EGFR kinase inhibition assay (Lance Ultra TR-FRET), double mutant del19/C797S
Procedure, shortened: as §1

EGFR L858R/C797S = EGFR L858R/C797S (Homo sapiens, UniProt P00533, C797S/L858R); assay: Biochemical EGFR kinase inhibition assay (Lance Ultra TR-FRET), double mutant L858R/C797S
Procedure, shortened: as §1

[1] = IC50 L858R/T790M/C797S (nM), 100 μM ATP
[2] = Km ATP, read-out: IC50 L858R/T790M/C797S (nM) Km ATP
[3] = IC50 Del19/T790M/C797S (nM), 100 μM ATP
[4] = Km ATP, read-out: IC50 Del19/T790M/C797S (nM) Km ATP
[5] = Km ATP, read-out: IC50 WT (nM) Km ATP
[6] = IC50 Del19/C797S (nM), 100 μM ATP
[7] = Km ATP, read-out: IC50 Del19/C797S (nM) Km ATP
[8] = IC50 L858R/C797S (nM), 100 μM ATP
[9] = Km ATP, read-out: IC50 L858R/C797S (nM) Km ATP

Chain of EGFR Del19/T790M/C797S (P00533 with tags, fused parts or gaps DEL746-750/T790M/C797S): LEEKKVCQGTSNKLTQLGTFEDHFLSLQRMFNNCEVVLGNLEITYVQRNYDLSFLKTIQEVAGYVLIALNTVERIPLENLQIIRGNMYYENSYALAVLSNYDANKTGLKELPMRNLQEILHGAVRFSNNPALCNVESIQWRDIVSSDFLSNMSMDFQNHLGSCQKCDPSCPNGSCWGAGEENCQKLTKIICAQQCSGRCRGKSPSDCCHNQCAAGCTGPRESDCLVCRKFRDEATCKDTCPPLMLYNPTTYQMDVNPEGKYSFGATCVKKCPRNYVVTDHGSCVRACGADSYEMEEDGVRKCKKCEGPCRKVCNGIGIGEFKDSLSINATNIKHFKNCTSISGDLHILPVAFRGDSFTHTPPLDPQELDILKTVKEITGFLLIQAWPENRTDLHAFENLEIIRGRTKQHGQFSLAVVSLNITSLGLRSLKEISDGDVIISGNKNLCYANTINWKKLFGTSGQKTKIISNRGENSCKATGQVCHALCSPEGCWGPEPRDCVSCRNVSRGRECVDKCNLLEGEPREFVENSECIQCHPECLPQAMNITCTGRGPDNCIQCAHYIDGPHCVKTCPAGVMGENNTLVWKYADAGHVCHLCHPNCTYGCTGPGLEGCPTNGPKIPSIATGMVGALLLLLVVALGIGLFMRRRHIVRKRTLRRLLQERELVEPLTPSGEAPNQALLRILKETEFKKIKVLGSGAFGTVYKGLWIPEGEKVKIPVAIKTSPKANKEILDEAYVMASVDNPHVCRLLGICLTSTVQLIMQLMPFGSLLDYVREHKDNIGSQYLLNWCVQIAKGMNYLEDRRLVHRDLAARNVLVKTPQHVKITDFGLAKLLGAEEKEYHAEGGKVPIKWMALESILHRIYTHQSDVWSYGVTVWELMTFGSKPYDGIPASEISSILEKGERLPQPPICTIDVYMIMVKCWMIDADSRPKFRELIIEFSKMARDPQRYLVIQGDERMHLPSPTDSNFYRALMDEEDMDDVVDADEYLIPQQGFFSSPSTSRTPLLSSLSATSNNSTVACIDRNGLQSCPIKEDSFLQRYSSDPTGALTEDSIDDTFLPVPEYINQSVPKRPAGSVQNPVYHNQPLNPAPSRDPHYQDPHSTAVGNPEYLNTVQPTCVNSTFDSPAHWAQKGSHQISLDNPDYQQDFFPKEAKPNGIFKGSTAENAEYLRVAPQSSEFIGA
Chain of EGFR wildtype (WT) (P00533 25-1210): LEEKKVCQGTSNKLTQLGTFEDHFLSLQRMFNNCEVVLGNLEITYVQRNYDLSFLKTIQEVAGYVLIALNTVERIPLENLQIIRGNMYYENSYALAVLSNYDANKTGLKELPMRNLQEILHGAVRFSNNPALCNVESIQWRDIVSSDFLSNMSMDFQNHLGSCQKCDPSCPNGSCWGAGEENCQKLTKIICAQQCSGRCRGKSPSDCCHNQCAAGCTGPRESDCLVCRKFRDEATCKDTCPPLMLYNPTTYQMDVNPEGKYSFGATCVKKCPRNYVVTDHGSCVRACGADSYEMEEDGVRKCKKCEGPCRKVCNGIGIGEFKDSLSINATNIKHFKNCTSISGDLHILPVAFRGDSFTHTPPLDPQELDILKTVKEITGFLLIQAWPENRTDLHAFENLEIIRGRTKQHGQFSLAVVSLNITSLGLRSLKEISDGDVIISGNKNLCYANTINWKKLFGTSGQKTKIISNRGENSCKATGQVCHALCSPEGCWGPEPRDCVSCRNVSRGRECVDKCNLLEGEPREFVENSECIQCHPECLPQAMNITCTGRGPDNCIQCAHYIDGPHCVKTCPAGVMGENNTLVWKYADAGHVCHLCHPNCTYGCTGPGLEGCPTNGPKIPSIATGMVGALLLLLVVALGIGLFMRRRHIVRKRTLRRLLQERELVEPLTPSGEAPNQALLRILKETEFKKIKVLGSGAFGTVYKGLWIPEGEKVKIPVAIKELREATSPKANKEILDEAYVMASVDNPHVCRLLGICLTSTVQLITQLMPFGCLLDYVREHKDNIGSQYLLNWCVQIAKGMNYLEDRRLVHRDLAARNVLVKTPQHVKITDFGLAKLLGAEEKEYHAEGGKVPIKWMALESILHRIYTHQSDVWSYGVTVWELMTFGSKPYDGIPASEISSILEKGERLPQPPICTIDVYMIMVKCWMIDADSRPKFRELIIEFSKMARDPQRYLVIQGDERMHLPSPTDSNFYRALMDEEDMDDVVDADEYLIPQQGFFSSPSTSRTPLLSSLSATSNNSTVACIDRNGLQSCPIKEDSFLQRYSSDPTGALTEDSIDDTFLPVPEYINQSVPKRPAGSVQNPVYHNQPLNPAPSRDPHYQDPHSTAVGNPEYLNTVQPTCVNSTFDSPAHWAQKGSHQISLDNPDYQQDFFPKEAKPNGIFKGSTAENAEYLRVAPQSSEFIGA
Chain of EGFR L858R/T790M/C797S (P00533 25-1210 T790M/C797S/L858R): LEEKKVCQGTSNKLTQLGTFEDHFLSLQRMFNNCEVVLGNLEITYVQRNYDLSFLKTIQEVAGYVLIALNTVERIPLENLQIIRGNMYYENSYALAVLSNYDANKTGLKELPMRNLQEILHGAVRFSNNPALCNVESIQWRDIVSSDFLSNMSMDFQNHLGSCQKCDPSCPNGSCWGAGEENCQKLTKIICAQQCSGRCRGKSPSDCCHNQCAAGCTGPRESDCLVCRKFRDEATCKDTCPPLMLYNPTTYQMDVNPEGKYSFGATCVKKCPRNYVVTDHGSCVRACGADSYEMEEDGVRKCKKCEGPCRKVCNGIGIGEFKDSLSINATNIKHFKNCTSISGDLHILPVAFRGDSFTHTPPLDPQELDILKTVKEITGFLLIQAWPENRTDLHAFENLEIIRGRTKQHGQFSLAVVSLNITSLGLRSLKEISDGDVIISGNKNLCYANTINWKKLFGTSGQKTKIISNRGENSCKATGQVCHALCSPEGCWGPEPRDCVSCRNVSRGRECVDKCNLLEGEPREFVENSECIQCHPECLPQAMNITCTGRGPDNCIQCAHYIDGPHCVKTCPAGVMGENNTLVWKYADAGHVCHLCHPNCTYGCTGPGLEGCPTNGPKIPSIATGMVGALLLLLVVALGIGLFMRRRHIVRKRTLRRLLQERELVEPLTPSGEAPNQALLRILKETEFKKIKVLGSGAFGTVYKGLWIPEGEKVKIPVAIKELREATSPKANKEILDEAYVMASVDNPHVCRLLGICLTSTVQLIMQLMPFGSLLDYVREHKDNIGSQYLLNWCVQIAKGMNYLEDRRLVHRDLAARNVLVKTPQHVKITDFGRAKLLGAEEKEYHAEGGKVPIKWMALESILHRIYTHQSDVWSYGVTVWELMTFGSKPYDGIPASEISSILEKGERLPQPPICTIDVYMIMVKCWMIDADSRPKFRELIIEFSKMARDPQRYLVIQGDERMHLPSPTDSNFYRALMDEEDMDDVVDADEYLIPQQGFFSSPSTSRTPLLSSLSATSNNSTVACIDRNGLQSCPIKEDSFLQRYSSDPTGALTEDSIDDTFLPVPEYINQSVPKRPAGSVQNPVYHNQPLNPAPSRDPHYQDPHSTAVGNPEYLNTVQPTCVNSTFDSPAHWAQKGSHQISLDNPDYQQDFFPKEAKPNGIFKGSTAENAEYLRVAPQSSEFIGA
Chain of EGFR Del19/C797S (P00533 with tags, fused parts or gaps DEL746-750/C797S): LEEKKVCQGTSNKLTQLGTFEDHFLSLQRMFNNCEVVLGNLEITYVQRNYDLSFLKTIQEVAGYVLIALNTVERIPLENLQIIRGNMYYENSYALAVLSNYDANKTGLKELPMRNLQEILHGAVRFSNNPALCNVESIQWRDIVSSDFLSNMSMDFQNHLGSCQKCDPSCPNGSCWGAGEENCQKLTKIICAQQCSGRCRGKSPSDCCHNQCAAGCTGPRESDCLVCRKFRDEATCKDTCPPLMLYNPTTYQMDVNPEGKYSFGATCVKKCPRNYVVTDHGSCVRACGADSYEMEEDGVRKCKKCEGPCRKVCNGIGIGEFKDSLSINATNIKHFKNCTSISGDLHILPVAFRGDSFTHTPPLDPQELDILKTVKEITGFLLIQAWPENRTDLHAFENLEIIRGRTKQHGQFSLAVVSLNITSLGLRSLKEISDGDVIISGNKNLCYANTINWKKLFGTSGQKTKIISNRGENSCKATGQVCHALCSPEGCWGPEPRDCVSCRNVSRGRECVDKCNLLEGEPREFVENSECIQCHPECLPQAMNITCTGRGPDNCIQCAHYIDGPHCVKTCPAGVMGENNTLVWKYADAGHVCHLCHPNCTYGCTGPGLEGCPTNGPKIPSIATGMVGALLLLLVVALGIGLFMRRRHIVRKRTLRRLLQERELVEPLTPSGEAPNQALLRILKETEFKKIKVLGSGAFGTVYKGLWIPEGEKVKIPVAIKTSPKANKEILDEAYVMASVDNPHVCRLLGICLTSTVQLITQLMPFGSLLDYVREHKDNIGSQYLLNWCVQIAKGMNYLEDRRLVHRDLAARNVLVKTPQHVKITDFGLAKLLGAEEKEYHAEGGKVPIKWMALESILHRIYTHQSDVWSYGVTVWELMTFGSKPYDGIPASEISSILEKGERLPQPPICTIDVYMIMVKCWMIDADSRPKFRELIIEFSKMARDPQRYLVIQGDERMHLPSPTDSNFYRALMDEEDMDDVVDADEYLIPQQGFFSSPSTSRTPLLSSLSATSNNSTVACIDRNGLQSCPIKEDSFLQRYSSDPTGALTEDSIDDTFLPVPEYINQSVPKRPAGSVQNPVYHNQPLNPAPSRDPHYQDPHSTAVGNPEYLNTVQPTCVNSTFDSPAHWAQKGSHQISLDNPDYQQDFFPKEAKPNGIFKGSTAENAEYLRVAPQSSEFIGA

Compound	IC50 (EGFR L858R/T790M/C797S; [1])	IC50 (EGFR L858R/T790M/C797S; [2])	IC50 (EGFR Del19/T790M/C797S; [3])	IC50 (EGFR Del19/T790M/C797S; [4])	IC50 (EGFR wildtype (WT); IC50 WT (nM), 100 μM ATP)	IC50 (EGFR wildtype (WT); [5])	IC50 (EGFR Del19/C797S; [6])	IC50 (EGFR Del19/C797S; [7])	IC50 (EGFR L858R/C797S; [8])	IC50 (EGFR L858R/C797S; [9])
CC(=O)N1CCC(n2cc(C#Cc3cnc(Nc4ccnc(-c5cnn(S(=O)(=O)C6CC6)c5)n4)cc3N3CCC(C)(CO)CC3)cn2)CC1 [Example 110, 1-(4-(4-((6-((2-(1-(Cyclopropylsulfonyl)-1H-pyrazol-4-yl)pyrimidin-4-yl)amino)-4-(4-(hydroxymethyl)-4-methylpiperidin-1-yl)pyridin-3-yl)ethynyl)-1H-pyrazol-1-yl)piperidin-1-yl)ethan-1-one]	1.3 nM	0.6 nM	1.2 nM	1.1 nM	296 nM	2.8 nM	1.7 nM	1.8 nM	2.7 nM	0.8 nM
O=S(=O)(C1CC1)n1cc(-c2nccc(Nc3cc(N4CCC(CO)C4)c(C#Cc4cnn(CCF)c4)cn3)n2)cn1 (stereo not shown) [Example 34, (1-(2-((2-(1-(Cyclopropylsulfonyl)-1H-pyrazol-4-yl)pyrimidin-4-yl)amino)-5-((1-(2-fluoroethyl)-1H-pyrazol-4-yl)ethynyl)pyridin-4-yl)pyrrolidin-3-yl)methanol]	6.8 nM		1.8 nM	2.1 nM	> 10000 nM	27.9 nM	11.5 nM		236 nM	
Cn1cc(C#Cc2cnc(Nc3ccnc(-c4cnn(S(=O)(=O)C5CC5)c4)n3)cc2N2CCC(CO)CC2)c(C(F)(F)F)n1 [Example 90, (1-(2-((2-(1-(Cyclopropylsulfonyl)-1H-pyrazol-4-yl)pyrimidin-4-yl)amino)-5-((1-methyl-3-(trifluoromethyl)-1H-pyrazol-4-yl)ethynyl)pyridin-4-yl)piperidin-4-yl)methanol]	11.8 nM		3.6 nM		> 10000 nM		28.5 nM		37.2 nM	

Second part, the compound after the results:

IC50 (EGFR L858R/T790M/C797S; [1])	IC50 (EGFR L858R/T790M/C797S; [2])	IC50 (EGFR Del19/T790M/C797S; [3])	IC50 (EGFR Del19/T790M/C797S; [4])	IC50 (EGFR wildtype (WT); IC50 WT (nM), 100 μM ATP)	IC50 (EGFR wildtype (WT); [5])	IC50 (EGFR Del19/C797S; [6])	IC50 (EGFR Del19/C797S; [7])	IC50 (EGFR L858R/C797S; [8])	IC50 (EGFR L858R/C797S; [9])	Compound
2.6 nM		3 nM		> 10000 nM		26.3 nM		154 nM		Cn1cc(C#Cc2cnc(Nc3ccnc(-c4cnn(S(=O)(=O)C5CC5)c4)n3)cc2N2CCC(NCC3CC3)CC2)cn1 [Example 124, N-(4-(4-((Cyclopropylmethyl)amino)piperidin-1-yl)-5-((1-methyl-1H-pyrazol-4-yl)ethynyl)pyridin-2-yl)-2-(1-(cyclopropylsulfonyl)-1H-pyrazol-4-yl)pyrimidin-4-amine]
0.9 nM	0.2 nM	0.4 nM	0.4 nM	> 10000 nM	31.3 nM	8.4 nM	5.9 nM	176 nM	3.9 nM	CN(C)CCNC1CCN(c2cc(Nc3ccnc(-c4cnn(S(=O)(=O)C5CC5)c4)n3)ncc2C#Cc2ccn(C)n2)CC1 [Example 142, N^1-(1-(2-((2-(1-(Cyclopropylsulfonyl)-1H-pyrazol-4-yl)pyrimidin-4-yl)amino)-5-((1-methyl-1H-pyrazol-3-yl)ethynyl)pyridin-4-yl)piperidin-4-yl)-N^2,N^2-dimethylethane-1,2-diamine]
0.5 nM	0.2 nM	0.5 nM	0.5 nM	3760 nM	4.9 nM	0.7 nM	0.8 nM	8.9 nM	2.2 nM	CN1CCn2ncc(C#Cc3cnc(Nc4ccnc(-c5cnn(S(=O)(=O)C6CC6)c5)n4)cc3N3CCC(C)(CO)CC3)c2C1 [Example 150, (1-(2-((2-(1-(Cyclopropylsulfonyl)-1H-pyrazol-4-yl)pyrimidin-4-yl)amino)-5-((5-methyl-4,5,6,7-tetrahydropyrazolo[1,5-a]pyrazin-3-yl)ethynyl)pyridin-4-yl)-4-methylpiperidin-4-yl)methanol]
4.2 nM		1.3 nM		> 10000 nM		131 nM		46.4 nM		COCCNC1CCN(c2cc(Nc3ccnc(-c4cnn(S(=O)(=O)C5CC5)c4)n3)ncc2C#Cc2cnn(C)c2)CC1 [Example 132, 2-(1-(Cyclopropylsulfonyl)-1H-pyrazol-4-yl)-N-(4-(4-((2-methoxyethyl)amino)piperidin-1-yl)-5-((1-methyl-1H-pyrazol-4-yl)ethynyl)pyridin-2-yl)pyrimidin-4-amine]
